{
  "source": "ChEMBL document CHEMBL3132769",
  "about": "“Fragment growing to retain or alter the selectivity of anchored kinase hinge-binding fragments” (Medchemcomm, 2014)",
  "key": {"[1]": {"target": "T1, cGMP-dependent protein kinase 1 (Homo sapiens) (UniProt Q13976)", "T1 sequence (whole entry)": "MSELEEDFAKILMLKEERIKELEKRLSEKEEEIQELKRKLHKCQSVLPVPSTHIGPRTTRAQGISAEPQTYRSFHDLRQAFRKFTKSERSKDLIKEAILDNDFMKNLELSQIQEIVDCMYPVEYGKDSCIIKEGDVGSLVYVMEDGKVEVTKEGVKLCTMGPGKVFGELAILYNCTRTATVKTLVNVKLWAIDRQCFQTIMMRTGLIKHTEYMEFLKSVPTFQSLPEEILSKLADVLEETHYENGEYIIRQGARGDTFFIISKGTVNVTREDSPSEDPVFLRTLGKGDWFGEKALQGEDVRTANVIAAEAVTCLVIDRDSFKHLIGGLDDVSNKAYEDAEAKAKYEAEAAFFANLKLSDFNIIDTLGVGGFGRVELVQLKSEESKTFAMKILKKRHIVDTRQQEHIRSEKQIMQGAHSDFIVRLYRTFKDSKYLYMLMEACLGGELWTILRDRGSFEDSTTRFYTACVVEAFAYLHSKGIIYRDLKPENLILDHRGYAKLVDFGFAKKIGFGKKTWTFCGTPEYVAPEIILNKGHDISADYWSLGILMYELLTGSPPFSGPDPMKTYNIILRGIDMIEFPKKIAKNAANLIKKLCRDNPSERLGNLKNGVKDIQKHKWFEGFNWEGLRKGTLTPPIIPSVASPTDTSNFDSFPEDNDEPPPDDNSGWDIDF", "assay": "Inhibition of human full length PKG-1beta expressed in baculovirus assessed as substrate phosphorylation using fluorescence-labelled peptides as substrate at 0.06 uM after 90 mins by microfluidic peptide phosphorylation assay"}, "[2]": {"target": "Tyrosine-protein kinase ABL1 (Homo sapiens) (UniProt P00519)", "assay": "Inhibition of human full-length ABL expressed in baculovirus assessed as substrate phosphorylation using fluorescence-labelled peptides as substrate at 420 uM after 90 mins by microfluidic peptide phosphorylation assay"}, "[3]": {"target": "RAF proto-oncogene serine/threonine-protein kinase (Homo sapiens) (UniProt P04049)", "sequence (P04049 whole entry, the tested form may be a part)": "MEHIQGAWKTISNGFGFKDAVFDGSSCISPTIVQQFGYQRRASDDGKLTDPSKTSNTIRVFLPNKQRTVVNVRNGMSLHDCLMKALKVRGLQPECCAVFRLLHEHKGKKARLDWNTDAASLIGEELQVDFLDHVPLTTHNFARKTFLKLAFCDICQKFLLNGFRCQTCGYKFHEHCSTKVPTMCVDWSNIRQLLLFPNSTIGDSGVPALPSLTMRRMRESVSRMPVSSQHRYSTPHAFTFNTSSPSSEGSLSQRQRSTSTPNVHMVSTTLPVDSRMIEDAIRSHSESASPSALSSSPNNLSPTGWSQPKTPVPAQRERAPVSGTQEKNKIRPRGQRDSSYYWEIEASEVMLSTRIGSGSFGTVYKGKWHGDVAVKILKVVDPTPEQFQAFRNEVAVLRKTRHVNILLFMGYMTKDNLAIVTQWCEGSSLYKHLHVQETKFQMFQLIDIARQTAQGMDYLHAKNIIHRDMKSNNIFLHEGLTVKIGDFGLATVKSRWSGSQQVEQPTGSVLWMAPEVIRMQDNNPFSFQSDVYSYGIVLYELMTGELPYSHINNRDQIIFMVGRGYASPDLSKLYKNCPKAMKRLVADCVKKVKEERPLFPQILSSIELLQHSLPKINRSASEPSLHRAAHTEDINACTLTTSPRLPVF", "assay": "Inhibition of human truncated c-Raf expressed in baculovirus assessed as substrate phosphorylation using fluorescence-labelled peptides as substrate at 0.2 uM after 90 mins by microfluidic peptide phosphorylation assay"}, "[4]": {"target": "Fibroblast growth factor receptor 3 (Homo sapiens) (UniProt P22607)", "sequence (P22607 23-806 limits assumed)": "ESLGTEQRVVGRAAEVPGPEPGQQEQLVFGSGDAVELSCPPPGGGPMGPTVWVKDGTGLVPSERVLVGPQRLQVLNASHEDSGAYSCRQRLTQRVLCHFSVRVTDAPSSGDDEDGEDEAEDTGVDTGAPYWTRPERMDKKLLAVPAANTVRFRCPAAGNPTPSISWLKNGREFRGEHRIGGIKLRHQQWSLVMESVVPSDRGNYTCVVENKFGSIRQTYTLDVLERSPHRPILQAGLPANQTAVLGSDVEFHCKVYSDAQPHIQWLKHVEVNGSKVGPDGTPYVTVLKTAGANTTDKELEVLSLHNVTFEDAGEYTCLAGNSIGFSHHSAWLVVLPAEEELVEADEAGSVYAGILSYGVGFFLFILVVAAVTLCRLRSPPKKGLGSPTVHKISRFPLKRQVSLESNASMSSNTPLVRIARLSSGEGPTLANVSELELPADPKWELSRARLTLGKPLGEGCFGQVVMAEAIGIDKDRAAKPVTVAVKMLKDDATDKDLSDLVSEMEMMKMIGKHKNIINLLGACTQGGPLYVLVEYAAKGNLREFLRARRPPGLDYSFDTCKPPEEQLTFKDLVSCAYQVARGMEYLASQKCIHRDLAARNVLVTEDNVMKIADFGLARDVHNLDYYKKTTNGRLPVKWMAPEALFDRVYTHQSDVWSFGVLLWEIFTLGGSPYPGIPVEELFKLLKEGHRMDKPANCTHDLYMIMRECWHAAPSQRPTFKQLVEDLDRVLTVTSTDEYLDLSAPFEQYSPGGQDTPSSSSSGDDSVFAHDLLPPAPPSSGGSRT", "assay": "Inhibition of human FGFR3 catalytic domain expressed in baculovirus assessed as substrate phosphorylation using fluorescence-labelled peptides as substrate at 9 uM after 90 mins by microfluidic peptide phosphorylation assay"}, "[5]": {"target": "T2, Serine/threonine-protein kinase DCLK2 (Homo sapiens) (UniProt Q8N568)", "T2 sequence (whole entry)": "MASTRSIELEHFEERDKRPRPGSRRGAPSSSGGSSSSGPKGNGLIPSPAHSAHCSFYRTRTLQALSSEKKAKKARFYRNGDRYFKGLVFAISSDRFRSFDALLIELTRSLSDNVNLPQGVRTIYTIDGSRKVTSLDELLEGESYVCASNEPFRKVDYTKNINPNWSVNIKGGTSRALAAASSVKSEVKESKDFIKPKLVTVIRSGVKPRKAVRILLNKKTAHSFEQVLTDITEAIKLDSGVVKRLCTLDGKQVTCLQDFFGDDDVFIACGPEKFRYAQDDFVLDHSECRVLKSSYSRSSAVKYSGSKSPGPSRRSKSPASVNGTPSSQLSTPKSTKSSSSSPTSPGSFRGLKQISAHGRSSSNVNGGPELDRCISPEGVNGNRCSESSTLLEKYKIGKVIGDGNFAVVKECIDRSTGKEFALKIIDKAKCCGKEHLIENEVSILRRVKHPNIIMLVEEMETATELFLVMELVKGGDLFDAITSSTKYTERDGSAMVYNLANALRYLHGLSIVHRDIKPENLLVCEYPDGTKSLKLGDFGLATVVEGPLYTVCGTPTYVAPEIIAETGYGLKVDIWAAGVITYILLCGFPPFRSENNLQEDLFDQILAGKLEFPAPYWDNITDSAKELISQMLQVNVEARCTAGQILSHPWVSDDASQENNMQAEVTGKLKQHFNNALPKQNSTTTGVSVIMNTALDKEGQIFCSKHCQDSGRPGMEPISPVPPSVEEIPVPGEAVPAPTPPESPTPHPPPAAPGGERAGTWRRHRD", "assay": "Inhibition of human full length DCAMKL2 expressed in baculovirus assessed as substrate phosphorylation using fluorescence-labelled peptides as substrate at 95 uM after 90 mins by microfluidic peptide phosphorylation assay"}, "[6]": {"target": "Ribosomal protein S6 kinase alpha-4 (Homo sapiens) (UniProt O75676)", "sequence (O75676 whole entry, looked up)": "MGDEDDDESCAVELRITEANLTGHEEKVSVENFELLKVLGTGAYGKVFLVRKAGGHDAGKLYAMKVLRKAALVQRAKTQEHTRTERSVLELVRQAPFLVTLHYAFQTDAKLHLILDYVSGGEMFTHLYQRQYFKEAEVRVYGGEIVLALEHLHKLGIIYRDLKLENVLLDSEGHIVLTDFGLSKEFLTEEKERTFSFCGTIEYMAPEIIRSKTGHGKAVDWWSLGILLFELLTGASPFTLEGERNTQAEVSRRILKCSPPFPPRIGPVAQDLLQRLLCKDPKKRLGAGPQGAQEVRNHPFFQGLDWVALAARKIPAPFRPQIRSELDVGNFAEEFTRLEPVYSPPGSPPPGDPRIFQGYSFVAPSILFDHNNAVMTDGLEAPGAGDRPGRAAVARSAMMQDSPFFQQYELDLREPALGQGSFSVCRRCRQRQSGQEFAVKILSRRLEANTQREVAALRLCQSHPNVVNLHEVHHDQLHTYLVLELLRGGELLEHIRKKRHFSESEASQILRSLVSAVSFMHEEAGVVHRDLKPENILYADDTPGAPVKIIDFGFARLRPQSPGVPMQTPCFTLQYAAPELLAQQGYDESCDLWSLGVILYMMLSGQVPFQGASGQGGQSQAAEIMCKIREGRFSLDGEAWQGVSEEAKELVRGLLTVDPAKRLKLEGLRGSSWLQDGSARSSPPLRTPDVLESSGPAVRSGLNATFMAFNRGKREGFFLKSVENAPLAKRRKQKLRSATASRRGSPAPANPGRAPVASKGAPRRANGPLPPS", "assay": "Inhibition of human full length MSK2 expressed in baculovirus assessed as substrate phosphorylation using fluorescence-labelled peptides as substrate at 8 uM after 90 mins by microfluidic peptide phosphorylation assay"}, "[7]": {"tested_on": "Tyrosine-protein kinase ABL1 (Homo sapiens), P00519 [H396P]", "assay": "Inhibition of human truncated ABL H396P mutant expressed in baculovirus assessed as substrate phosphorylation using fluorescence-labelled peptides as substrate at 8 uM after 90 mins by microfluidic peptide phosphorylation assay"}, "[8]": {"target": "Tyrosine-protein kinase Lyn (Homo sapiens) (UniProt P07948)", "sequence (P07948 2-512 limits assumed)": "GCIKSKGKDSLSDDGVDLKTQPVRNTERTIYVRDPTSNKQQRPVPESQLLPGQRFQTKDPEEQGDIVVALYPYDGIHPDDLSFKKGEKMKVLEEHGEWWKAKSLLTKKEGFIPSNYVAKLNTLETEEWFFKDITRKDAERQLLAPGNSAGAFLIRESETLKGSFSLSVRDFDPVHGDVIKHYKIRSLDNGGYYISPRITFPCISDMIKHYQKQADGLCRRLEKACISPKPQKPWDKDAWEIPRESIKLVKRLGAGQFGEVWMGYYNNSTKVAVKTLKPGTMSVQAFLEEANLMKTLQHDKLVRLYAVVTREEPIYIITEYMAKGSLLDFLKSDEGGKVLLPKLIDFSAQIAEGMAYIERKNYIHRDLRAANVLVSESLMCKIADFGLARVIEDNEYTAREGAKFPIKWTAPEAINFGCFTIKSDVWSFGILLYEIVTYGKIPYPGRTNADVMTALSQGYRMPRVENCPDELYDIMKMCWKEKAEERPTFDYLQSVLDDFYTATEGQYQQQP", "assay": "Inhibition of human full length LYN expressed in baculovirus assessed as substrate phosphorylation using fluorescence-labelled peptides as substrate at 1000 uM after 90 mins by microfluidic peptide phosphorylation assay"}, "[9]": {"target": "Casein kinase I isoform alpha (Homo sapiens) (UniProt P48729)", "sequence (P48729 2-337 limits assumed)": "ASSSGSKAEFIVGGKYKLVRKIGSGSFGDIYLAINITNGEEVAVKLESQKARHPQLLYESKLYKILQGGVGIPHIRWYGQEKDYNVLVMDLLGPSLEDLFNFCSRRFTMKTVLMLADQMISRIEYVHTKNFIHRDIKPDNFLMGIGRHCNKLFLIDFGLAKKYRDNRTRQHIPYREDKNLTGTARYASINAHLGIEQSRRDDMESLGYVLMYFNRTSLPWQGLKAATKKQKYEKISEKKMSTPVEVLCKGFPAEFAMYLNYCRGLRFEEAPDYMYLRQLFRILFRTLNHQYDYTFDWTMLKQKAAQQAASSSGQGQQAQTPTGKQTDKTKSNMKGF", "assay": "Inhibition of human full length CSNK1A1 expressed in baculovirus assessed as substrate phosphorylation using fluorescence-labelled peptides as substrate at 2 uM after 90 mins by microfluidic peptide phosphorylation assay"}, "[10]": {"target": "Insulin receptor (Homo sapiens) (UniProt P06213)", "assay": "Inhibition of human INSR catalytic domain expressed in baculovirus assessed as substrate phosphorylation using fluorescence-labelled peptides as substrate at 2 uM after 90 mins by microfluidic peptide phosphorylation assay"}, "[11]": {"target": "T3, Serine/threonine-protein kinase Nek2 (Homo sapiens) (UniProt P51955)", "T3 sequence (whole entry)": "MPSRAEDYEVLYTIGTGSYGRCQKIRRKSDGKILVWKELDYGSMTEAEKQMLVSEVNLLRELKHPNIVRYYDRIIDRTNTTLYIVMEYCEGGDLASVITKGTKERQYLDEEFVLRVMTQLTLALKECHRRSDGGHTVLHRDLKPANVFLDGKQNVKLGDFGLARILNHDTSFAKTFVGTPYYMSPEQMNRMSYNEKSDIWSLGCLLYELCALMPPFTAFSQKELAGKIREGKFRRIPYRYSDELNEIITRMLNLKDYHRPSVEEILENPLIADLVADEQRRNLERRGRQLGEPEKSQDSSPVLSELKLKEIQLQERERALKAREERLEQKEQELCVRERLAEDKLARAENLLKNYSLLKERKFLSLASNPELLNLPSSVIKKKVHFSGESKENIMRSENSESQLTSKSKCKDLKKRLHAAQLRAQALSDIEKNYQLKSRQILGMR", "assay": "Inhibition of human full length NEK2 expressed in baculovirus assessed as substrate phosphorylation using fluorescence-labelled peptides as substrate at 2 uM after 90 mins by microfluidic peptide phosphorylation assay"}},
  "data": [
    {"smiles": "NC1(Cc2ccc(Cl)cc2)CCN(c2ncnc3[nH]ccc23)CC1", "values": [
      {"measurement": "inhibition", "setting": "[1]", "result": 0, "unit": "%"}
    ]},
    {"smiles": "c1nc(N2CCOCC2)c2nc[nH]c2n1", "values": [
      {"measurement": "inhibition", "setting": "[2]", "result": 69, "unit": "%"}
    ]},
    {"smiles": "Clc1ccc(C2(c3ccc(-c4ncnc5[nH]cnc45)cc3)CCNCC2)cc1", "values": [
      {"measurement": "inhibition", "setting": "[3]", "result": 3.5, "unit": "%"}
    ]},
    {"smiles": "NCC1CN(c2ncnc3[nH]c4cnccc4c23)CCO1", "note": "(stereo unspecified)", "values": [
      {"measurement": "inhibition", "setting": "[4]", "result": 43.5, "unit": "%"}
    ]},
    {"smiles": "NCCc1ccc(-c2ncnc3[nH]cnc23)cc1", "values": [
      {"measurement": "inhibition", "setting": "[5]", "result": 35, "unit": "%"}
    ]},
    {"smiles": "NCC1CCN(c2ncnc3[nH]ccc23)CC1", "values": [
      {"measurement": "inhibition", "setting": "[6]", "result": 50, "unit": "%"},
      {"measurement": "inhibition", "setting": "[7]", "result": 20.5, "unit": "%"}
    ]},
    {"smiles": "c1cnc2[nH]ccc2c1", "values": [
      {"measurement": "inhibition", "setting": "[8]", "result": 31.5, "unit": "%"}
    ]},
    {"smiles": "NC1CCN(c2ncnc3[nH]ccc23)CC1", "values": [
      {"measurement": "inhibition", "setting": "[9]", "result": 9.5, "unit": "%"},
      {"measurement": "inhibition", "setting": "[10]", "result": 7.5, "unit": "%"},
      {"measurement": "inhibition", "setting": "[11]", "result": 0, "unit": "%"}
    ]}
  ]
}
